Consider three molecules from patent US7341985B2, “2-Hydroxy-3-alkoxypropyl sulfides, sulfones, and sulfoxides: new surface active agents” (Air Products and Chemicals, Inc., priority 2004, dated 2008).

Common to all, as to assay type: physicochemical
One data set is described as follows: Water solubility.
Data set [1] can be described thus: Ross-Miles foam test (foam height and stability). The settings on record: 0.1 wt % solution. How it is done: Foam height and stability (time to reach zero foam) were measured by the Ross-Miles foam test, using 0.1 wt % solutions of the surfactants.
The nature of data set [2]: Equilibrium surface tension (Kruss K-12 tensiometer, Wilhelmy plate). The conditions noted are these: 25±1° C., average of 10 measurements over 10 minutes. As to the method: Equilibrium surface tensions were determined for the compounds prepared in Examples 1-6, using a Kruss K-12 tensiometer with a platinum Wilhelmy plate, maintaining the temperature at 25±1° C. by means of a constant temperature circulating bath. The results, reported in Table 2, are averages of 10 measurements over a 10-minute period, and have a standard deviation of less than 0.01 dyne/cm.

Data set [3] is described as follows: Dynamic surface tension (Kruss BP-2 Bubble Pressure Tensiometer). The conditions noted are these: for Dynamic surface tension reduction of an aqueous solution (in words): summary of Table 4. How it is done: Dynamic surface tensions were determined for the compounds prepared in Examples 1-5, at 0.1 and 1.0 wt % levels, using a Kruss BP-2 Bubble Pressure Tensiometer.

Where [4] appears, read: 0.1 wt %, 1 b/s (bubbles/second).

As for `CCCCOCC(O)CSCCO` (stereo not drawn) [MEBGE, 2-hydroxyethyl-2′-hydroxy-3′-butoxypropyl sulfide], the “Water Solubility” value in “Water solubility” is on record as less than 0.1 wt %. For the same molecule, the “Initial Foam Height” value in data set [1] was found to be 1.2 cm. In addition, in data set [1], the “Time to 0 foam” value is 2 s. The “Final Foam Height at 300 Sec” value in data set [1] amounted to 0 cm. Also, the results for the “Equilibrium Surface Tension” value in data set [2] (0.1 wt % in water) and in data set [2] (1.0 wt % in water) were 37.1 dynes/cm and 32.6 dynes/cm, respectively. For the same molecule, the Dynamic surface tension in data set [3] (setting [4]) was 59 dynes/cm; in data set [3] (0.1 wt %, 5 b/s) it was 61 dynes/cm; in data set [3] (0.1 wt %, 20 b/s), 65 dynes/cm; in data set [3] (1.0 wt %, 1 b/s), 43 dynes/cm; in data set [3] (1.0 wt %, 5 b/s), 44 dynes/cm; in data set [3] (1.0 wt %, 20 b/s), 44 dynes/cm. Moreover, in data set [3], the “Dynamic surface tension reduction of an aqueous solution (in words)” value (from here on “Dynamic surface tension reduction”) is given as “moderate”.

As for `CCCCC(CC)COCC(O)CSCCO` (stereo not drawn) [MEEHGE, 2-hydroxyethyl-2′-hydroxy-3′-(2-ethylhexyloxy)propyl sulfide], the “Water Solubility” value in the data set “Water solubility” is listed as less than 0.1 wt %. Further, in data set [1], the “Initial Foam Height” value was found to be 0.6 cm. Besides, the “Time to 0 foam” value in data set [1] is 6 s. In data set [1], the “Final Foam Height at 300 Sec” value came out at 0 cm. In addition, the “Equilibrium Surface Tension” value in data set [2] (0.1 wt % in water) is 30.7 dynes/cm; in data set [2] (1.0 wt % in water), 29.3 dynes/cm. Further, the Dynamic surface tension amounted to 35 dynes/cm in data set [3] (setting [4]); 39 dynes/cm in data set [3] (0.1 wt %, 5 b/s); 45 dynes/cm in data set [3] (0.1 wt %, 20 b/s); 30 dynes/cm in data set [3] (1.0 wt %, 1 b/s); 30 dynes/cm in data set [3] (1.0 wt %, 5 b/s); 32 dynes/cm in data set [3] (1.0 wt %, 20 b/s). Besides, the “Dynamic surface tension reduction” value in data set [3] was “strong”.

With `CCCCC(CC)COCC(O)CSCC(O)CO` (stereo not drawn) [TGEHGE, 2,3-dihydroxypropyl-2′-hydroxy-3′-(2-ethylhexyloxy)propyl sulfide], the “Water Solubility” value in “Water solubility” is less than 0.1 wt %. The “Initial Foam Height” value in data set [1] is reported as 1.0 cm. For the same molecule, the “Time to 0 foam” value in data set [1] came to 6 s. The “Final Foam Height at 300 Sec” value in data set [1] amounted to 0 cm. The “Equilibrium Surface Tension” value amounted to 28.3 dynes/cm in data set [2] (0.1 wt % in water) and 26.7 dynes/cm in data set [2] (1.0 wt % in water). The Dynamic surface tension in data set [3] (setting [4]) stood at 37 dynes/cm; in data set [3] (0.1 wt %, 5 b/s), 47 dynes/cm; in data set [3] (0.1 wt %, 20 b/s) it was 53 dynes/cm; in data set [3] (1.0 wt %, 1 b/s) it was 27 dynes/cm; in data set [3] (1.0 wt %, 5 b/s) it was 28 dynes/cm; in data set [3] (1.0 wt %, 20 b/s), 30 dynes/cm. In data set [3], the “Dynamic surface tension reduction” value is “strong”.
